Measurements as given in ChEMBL document CHEMBL1138746, “Indolebutylamines as selective 5-HT(1A) agonists” (J Med Chem, 2004).

Target: T1, Adrenergic receptor alpha-2 (Homo sapiens, UniProt P08913+P18825+P18089)
T1 sequence (P08913 whole entry): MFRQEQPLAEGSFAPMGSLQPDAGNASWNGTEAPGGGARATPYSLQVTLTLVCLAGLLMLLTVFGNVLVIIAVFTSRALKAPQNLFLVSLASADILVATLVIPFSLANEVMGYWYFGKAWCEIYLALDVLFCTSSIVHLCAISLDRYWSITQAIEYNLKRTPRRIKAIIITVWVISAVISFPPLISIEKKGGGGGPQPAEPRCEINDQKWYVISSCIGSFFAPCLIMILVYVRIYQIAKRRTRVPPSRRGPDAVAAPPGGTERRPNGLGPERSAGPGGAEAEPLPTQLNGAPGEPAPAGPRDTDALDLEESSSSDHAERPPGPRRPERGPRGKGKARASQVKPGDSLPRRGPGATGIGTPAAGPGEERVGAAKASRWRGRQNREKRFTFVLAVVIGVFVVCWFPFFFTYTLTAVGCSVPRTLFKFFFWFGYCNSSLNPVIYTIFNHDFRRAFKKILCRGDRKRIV
T1 sequence (P18825 whole entry): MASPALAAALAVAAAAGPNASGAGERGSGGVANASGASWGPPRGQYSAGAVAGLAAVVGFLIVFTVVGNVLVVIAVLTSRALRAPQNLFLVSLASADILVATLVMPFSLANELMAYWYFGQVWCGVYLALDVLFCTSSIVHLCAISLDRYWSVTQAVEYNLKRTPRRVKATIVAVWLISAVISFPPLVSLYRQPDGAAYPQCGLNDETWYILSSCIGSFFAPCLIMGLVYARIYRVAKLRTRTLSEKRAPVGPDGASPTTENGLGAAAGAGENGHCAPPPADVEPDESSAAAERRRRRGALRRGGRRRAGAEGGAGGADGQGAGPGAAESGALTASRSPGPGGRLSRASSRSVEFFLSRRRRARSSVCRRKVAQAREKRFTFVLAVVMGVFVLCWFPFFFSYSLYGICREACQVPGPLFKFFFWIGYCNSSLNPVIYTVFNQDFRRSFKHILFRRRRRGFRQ
T1 sequence (P18089 whole entry): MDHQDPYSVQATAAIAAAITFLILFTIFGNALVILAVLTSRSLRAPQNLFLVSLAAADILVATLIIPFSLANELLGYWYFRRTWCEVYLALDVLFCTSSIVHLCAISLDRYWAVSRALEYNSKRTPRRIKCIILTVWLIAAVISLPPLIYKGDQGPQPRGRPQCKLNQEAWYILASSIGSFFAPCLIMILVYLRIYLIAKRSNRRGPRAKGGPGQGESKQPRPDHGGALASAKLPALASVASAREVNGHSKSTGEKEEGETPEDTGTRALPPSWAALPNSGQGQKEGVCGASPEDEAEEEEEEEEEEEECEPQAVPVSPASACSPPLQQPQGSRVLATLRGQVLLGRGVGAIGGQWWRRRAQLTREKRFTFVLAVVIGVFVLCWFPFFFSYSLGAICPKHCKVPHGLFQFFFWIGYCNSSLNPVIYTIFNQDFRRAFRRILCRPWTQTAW
Assay: Inhibition of Alpha-2 adrenergic receptor
Type: protein assay

Q: How did the IC50 turn out when O=C1c2ccccc2S(=O)(=O)N1CCCCN1CCN(c2ncccn2)CC1 [IPSAPIRONE] was run?
A: Its IC50 is 1000 nM.
